We go through 2 compounds from publication PMC11249637, “Interaction of the Atypical Tetracyclines Chelocardin and Amidochelocardin with Renal Drug Transporters” (ACS Pharmacology & Translational Science, 2024).

One data set has as its target T1, mOat2 (Mus musculus, UniProt Q91WU2).
T1 construct: expressed in transfected cells; host or cells: HEK293
T1 sequence (Q91WU2 1-540): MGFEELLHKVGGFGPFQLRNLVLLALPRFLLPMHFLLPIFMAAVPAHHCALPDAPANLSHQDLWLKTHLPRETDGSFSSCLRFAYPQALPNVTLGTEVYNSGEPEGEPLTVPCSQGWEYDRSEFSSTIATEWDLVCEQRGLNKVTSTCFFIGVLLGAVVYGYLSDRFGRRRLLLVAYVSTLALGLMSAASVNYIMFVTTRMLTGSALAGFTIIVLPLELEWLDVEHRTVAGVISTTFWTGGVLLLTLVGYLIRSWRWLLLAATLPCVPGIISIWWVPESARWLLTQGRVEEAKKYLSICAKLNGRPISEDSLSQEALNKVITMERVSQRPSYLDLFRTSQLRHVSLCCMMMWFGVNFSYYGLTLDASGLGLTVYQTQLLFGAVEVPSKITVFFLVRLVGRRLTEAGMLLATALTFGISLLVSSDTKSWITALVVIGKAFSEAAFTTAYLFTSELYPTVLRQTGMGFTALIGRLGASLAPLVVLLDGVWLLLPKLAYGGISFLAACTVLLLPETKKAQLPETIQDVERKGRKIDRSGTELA
The data set is described as follows: Two-point inhibition of mOat2-mediated cGMP uptake in transfected HEK293 cells. As to conditions: cGMP 10 μM, 5 min, read-out: inhibitory effect on mOat2. In kind it is in vitro ADME. The method, then: (§1) Well-characterized mOct1-, mOct2-, mOat1-, mOat2-, mOat3-, mMate1-, hOAT1-, hOAT3-, hOAT4-, hMRP2-, mMdr1a- and mMdr1b-transfected HEK293 cells and the respective vector-transfected control HEK293 cells were used.[42],[51],[52] All HEK293 cells (transporter-transfected and vector-transfected) were cultured in DMEM (Sigma, high glucose, 10% FBS, 1% penicillin (10,000 Units/mL)/streptomycin (10 mg/mL)) at 37°C under 5% CO2 in humidified atmosphere. The cells were routinely checked for the absence of mycoplasma infection. For the preparation of HEK293 cell monolayers, 24-well plates were pretreated with a poly-D-lysine hydrobromide solution (0.1 mg/mL). […]
(§2) For the uptake assay, the growth medium was aspirated, and each well was rinsed three times with 0.5 mL of incubation buffer (HBSS supplemented with 20 mM HEPES, pH 7.4) and incubated for 20 min at 37 °C. […] Cells were solubilized with 0.6 mL of 1N NaOH overnight and transferred into scintillation vials. ^3H and ^14C contents were measured after the addition of 2.5 mL of scintillator in a liquid scintillation counter.
(§3) The cellular protein amount was determined in parallel for each cell line (vector- and transporter-transfected) from six wells in a different 24-well reference plate using the Bradford method. […]
(§4) The inhibitory effect (I(%)) was calculated according to the formula: [drawing 5] […]

The target in another data set is T2, mOct2 (Mus musculus, UniProt O70577).
T2 construct: expressed in transfected cells; host or cells: HEK293
T2 sequence (O70577 1-553): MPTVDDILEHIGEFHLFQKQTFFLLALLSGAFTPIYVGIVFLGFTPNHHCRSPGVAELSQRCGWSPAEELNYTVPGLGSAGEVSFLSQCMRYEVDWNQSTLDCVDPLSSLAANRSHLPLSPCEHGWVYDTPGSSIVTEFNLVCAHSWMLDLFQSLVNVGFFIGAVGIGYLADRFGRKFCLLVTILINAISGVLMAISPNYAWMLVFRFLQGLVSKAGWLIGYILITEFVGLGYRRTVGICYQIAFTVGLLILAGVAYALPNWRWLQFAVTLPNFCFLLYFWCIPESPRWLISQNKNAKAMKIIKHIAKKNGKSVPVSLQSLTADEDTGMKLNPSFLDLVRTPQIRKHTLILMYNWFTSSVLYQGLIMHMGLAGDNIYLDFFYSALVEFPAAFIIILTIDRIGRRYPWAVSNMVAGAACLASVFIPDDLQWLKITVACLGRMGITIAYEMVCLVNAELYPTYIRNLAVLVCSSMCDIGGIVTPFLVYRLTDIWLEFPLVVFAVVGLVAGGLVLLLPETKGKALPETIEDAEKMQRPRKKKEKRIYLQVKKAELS
The data set is described as follows: Two-point inhibition of mOct2-mediated MPP uptake in transfected HEK293 cells. In kind it is in vitro ADME. As to conditions: 1 and 10 μM; MPP 10 μM, 1 min. The method, then: as §1, §2, §3, §4

Details of data set [1]: method as in PMID 38047701. Conditions: PK samples; cited from earlier work.

With `CC(=O)C1=C(O)[C@@H](N)[C@H]2Cc3c(c(O)c4c(O)c(C)ccc4c3C)C(=O)[C@@]2(O)C1=O` [CHD, chelocardin], on mOat2, the inhibition at 10 µM is around 100%. Besides, the “inhibitory effect on mOct2 (in words)” value on mOct2 was “No inhibitory effect”. Also, the “irreversible toxicity in histopathological analysis of kidneys and livers (in words)” value in data set [1] is listed as “has not been observed”.
As for `Cc1ccc2c(C)c3c(c(O)c2c1O)C(=O)[C@@]1(O)C(=O)C(C(N)=O)=C(O)[C@@H](N)[C@H]1C3` [CDCHD, amidochelocardin], the inhibition at 10 µM at mOat2 was around 100%. Besides, the “inhibitory effect on mOct2 (in words)” value against mOct2 is recorded as “No inhibitory effect”. Moreover, the “irreversible toxicity in histopathological analysis of kidneys and livers (in words)” value in data set [1] is on record as “has not been observed”.
